Source: US20220184081A1, “ANTIPRURITIC AGENT USING PAC1 RECEPTOR ANTAGONIST” (KAGOSHIMA UNIVERSITY, priority 2019, published 2022)

Experiments:
[1] = tested on: dry skin itch mouse model; experiment: Dry skin itch mouse model (AEW treatment); format: in vivo, ICR mice; details: oral PA-8 3, 10 or 30 mg/kg; observed 1 hour from 30 minutes after administration; FIG. 3
Procedure: The present test was carried out with reference to the method of Miyamoto et al. that is a test system published as a method for evaluating itch in animals (Miyamoto T., Nojima H., Shinkado T., et al.: Itch-associated response induced by experimental dry skin in mice, Jpn. J. Phamacol., 88, 285-292, 2002).
Five-week-old ICR mice (40 mice) were each placed in a cage, and were then conditioned for 1 week. Thereafter, three days before initiation of the test, the rostral back of each mouse was shaved (treatment method A). The thus shaved 40 mice were divided into 5 groups (8 mice/group), namely, into a 3 mg/kg PA-8 oral (p.o.) administration group, a 10 mg/kg PA-8 oral (p.o.) administration group, a 30 mg/kg PA-8 oral (p.o.) administration group, a comparative group, and a control group.
In the PA-8 administration groups, the mice, which had undergone a shaving treatment (treatment method A), were subjected to ether anesthesia. Thereafter, a cotton (2×2 cm) impregnated with a mixed solution of acetone (A): diethyl ether (E) (1:1) was applied to the rostral back of each mouse for 15 seconds, and then, a cotton impregnated with ion exchange water (W) was applied thereto for 30 seconds [hereinafter, a series of treatments are abbreviated as an AEW treatment (treatment method B)]. The AEW treatment was carried out twice a day, with intervals of 8 hours, for 5 days. […]

[2] = tested on: atopic dermatitis mouse model; experiment: Atopic dermatitis mouse model (DNFB); format: in vivo, ICR mice; details: 30 mg/kg p.o. 30 minutes before 1 hour video observation; FIG. 13
Procedure: The present test was carried out with reference to the method of Kitamura et al. that is a test system published as a method for evaluating itch in animals (Kitamura A., Takata R., Aizawa S., et al.: A murine model of atopic dermatitis can be generated by painting the dorsal skin with hapten twice 14 days apart, Scientific Rep., 8: 5988, 2018).
Five-week-old ICR mice (30 mice) were each placed in a cage, and were then conditioned for 1 week. Thereafter, three days before initiation of the test, the waist of each mouse was shaved. On the experiment start date, for the purpose of destroying the function of skin barrier, tape stripping was carried out, and 0.15% 2,4-dinitrofluorobenzene (DNFB) solution [acetone/olive oil (3:1)] was applied to the shaved waist of each mouse, using a 100-μIL pipette. Seven days later, the 0.15% DNFB solution was applied thereto once again, and two hours later, video observation was carried out for 1 hour. The shaved 30 mice were divided into 5 groups (6 mice per group), namely, a 30 mg/kg PA-8 oral (p.o.) administration group, a 30 mg/kg compound 2o oral (p.o.) administration group, a 30 mg/kg PA-9 oral (p.o.) administration group, a 30 mg/kg compound 3d (p.o.) administration group, and a solvent administration group (VEH: oral administration of 10% DMSO aqueous solution). Oral administration was carried out 30 minutes before initiation of the video observation.
An outline of the procedures of a behavioral experiment using the atopic dermatitis mouse model is shown in FIG. 12, and the results obtained by evaluating the time spent in scratching of each group are shown in FIG. 13.

[3] = tested on: chloroquine-induced itch behavior in mice; experiment: Itch behavior induced by chloroquine intradermal administration; format: in vivo, mouse; details: intrathecal pre-administration (i.t., 10 minutes before i.d.), 1 nmol; chloroquine 100 μg/10 μL; FIG. 10
Procedure: Chloroquine (100 μg/10 μL) was intradermally injected into the waist of each mouse (intradermal injection, i.d.). The reaction of biting, licking or scratching the injected site was defined as itch behavior, and the behavioral time was counted every 5 minutes. […] DMSO (10% solution, dissolved in normal saline) is a solvent for PA-8 or PA-9.

mouse VPAC1 receptor = molecular target: T1, mouse VPAC1 receptor (Mus musculus, UniProt P97751); experiment: CREB phosphorylation by PACAP stimulus, Western blot, VPAC1/CHO cells; format: cell-based; details: PA-8 10 pM to 10 nM, FIG. 4B
T1 construct: expressed in transfected cells; host or cells: CHO cells
T1 sequence (P97751 31-459): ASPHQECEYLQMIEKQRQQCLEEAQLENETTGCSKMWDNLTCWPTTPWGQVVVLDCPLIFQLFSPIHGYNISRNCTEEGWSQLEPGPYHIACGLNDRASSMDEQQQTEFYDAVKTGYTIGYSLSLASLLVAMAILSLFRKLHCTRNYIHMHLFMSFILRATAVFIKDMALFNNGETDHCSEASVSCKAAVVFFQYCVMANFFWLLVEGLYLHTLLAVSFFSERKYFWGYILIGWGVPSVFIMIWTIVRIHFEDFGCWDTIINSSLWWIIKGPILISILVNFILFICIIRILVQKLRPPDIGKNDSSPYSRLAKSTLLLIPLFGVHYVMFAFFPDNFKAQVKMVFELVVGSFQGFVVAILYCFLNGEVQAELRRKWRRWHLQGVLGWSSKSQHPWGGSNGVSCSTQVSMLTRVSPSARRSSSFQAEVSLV
Procedure: The effect of each compound on the phosphorylation of CREB (cAMP-responsive element-binding protein) produced by a PACAP stimulus was examined by Western blot analysis using an anti-phosphorylated CREB (pCREB) antibody with a mouse PAC1 receptor-expressing CHO cells (PAC1/CHO cells) and a mouse VPAC1 receptor-expressing CHO cells (VPAC1/CHO cells).
Specifically, treatment with a compound (PA-8, compound 2j and compound 2o) at 10 pM to 10 nM or a solvent therefor, DMSO (VEH: 0.1% DMSO-containing phosphate buffer solution) was performed for 30 minutes, 1 nM PACAP was then added, and protein was recovered within 30 minutes after a PACAP stimulus.

CREB phosphorylation by PACAP (1 nM) (mouse VPAC1 receptor): did not suppress CREB phosphorylation
Compound: C=CCOc1ccc(C2CC(=O)Nc3nc(N)[nH]c(=O)c32)cc1OC (stereo not shown) [PA-8]
scratching behavior induced by the AEW treatment (time spent in scratching) [1]: significantly suppressed
itch behavior induced by the DNFB treatment (time spent in scratching) [2]: significantly suppressed
chloroquine-induced itch behavior [3]: almost completely suppressed
